In ChEMBL document CHEMBL1201862, “PubChem BioAssay data set” (2004):
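Cultured in 96-well plates, cells were exposed to test compound for 48 hours across five concentrations. The concentration for 50% growth inhibition is given as GI50.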 Active and inactive are the calls of the source. Cut-off read from the data, not from the text of the source: active = GI50 up to about 1.1 µM and inactive = higher.

Legend:
Experiment in all cases: inhibition of tumour cell growth, NCI panel, 48 h
MDA-MB-435 = test system: MDA-MB-435
SK-MEL-5 = test system: SK-MEL-5
NCI-H226 = test system: NCI-H226
SK-MEL-28 = test system: SK-MEL-28
BT-549 = test system: BT-549
OVCAR-8 = test system: OVCAR-8
NCI-H522 = test system: NCI-H522
HOP-62 = test system: HOP-62
MDA-N = test system: MDA-N
IGROV-1 = test system: IGROV-1
SK-OV-3 = test system: SK-OV-3
HT-29 = test system: HT-29
COLO 205 = test system: COLO 205
U-251 = test system: U-251
SF-295 = test system: SF-295
OVCAR-5 = test system: OVCAR-5
SNB-75 = test system: SNB-75
TK-10 = test system: TK-10
DMS-114 = test system: DMS-114
SK-MEL-2 = test system: SK-MEL-2

Structure (SMILES) | GI50 (MDA-MB-435) | GI50 (SK-MEL-5) | GI50 (NCI-H226) | GI50 (SK-MEL-28) | GI50 (BT-549) | GI50 (OVCAR-8) | GI50 (NCI-H522) | GI50 (HOP-62) | GI50 (MDA-N) | GI50 (IGROV-1) | GI50 (SK-OV-3) | GI50 (HT-29) | GI50 (COLO 205) | GI50 (U-251) | GI50 (SF-295) | GI50 (OVCAR-5) | GI50 (SNB-75) | GI50 (TK-10) | GI50 (DMS-114) | GI50 (SK-MEL-2)
CCCc1cc(-c2ccc(-c3cc(CCC)c(C=O)[nH]3)s2)[nH]c1C=O | 15.5 µM (inactive) | 29.4 µM (inactive) | > 100 µM (inactive) | 63 µM (inactive) | 25.9 µM (inactive) | > 49.1 µM (inactive) | 5.45 µM (inactive) | > 100 µM (inactive) | 4.34 µM (inactive) | > 100 µM (inactive) | > 56.9 µM (inactive) | 2.18 µM (inactive) | 4.83 µM (inactive) | 61.1 µM (inactive) | 11.9 µM (inactive) | 15.1 µM (inactive) | > 100 µM (inactive) | > 100 µM (inactive) | 8.77 µM (inactive) | 22 µM (inactive)
Cc1cc(C(O)CCCc2ccccc2)cc(C)c1O (centres undefined) | – | 22.5 µM (inactive) | 24 µM (inactive) | 34.4 µM (inactive) | – | 47.5 µM (inactive) | 27.4 µM (inactive) | 33.3 µM (inactive) | – | 83.6 µM (inactive) | > 100 µM (inactive) | – | 67.6 µM (inactive) | 45.7 µM (inactive) | 28.8 µM (inactive) | 43.9 µM (inactive) | 16.4 µM (inactive) | 31.6 µM (inactive) | 26.2 µM (inactive) | 33.8 µM (inactive)
O=C(Nc1nc2ncn(CCOC(=O)c3ccccc3)c2c(=S)[nH]1)c1ccccc1 | – | > 100 µM (inactive) | 47.5 µM (inactive) | 42.3 µM (inactive) | – | 45.6 µM (inactive) | 21 µM (inactive) | 28.2 µM (inactive) | – | > 100 µM (inactive) | > 100 µM (inactive) | > 100 µM (inactive) | > 100 µM (inactive) | 31.8 µM (inactive) | 45 µM (inactive) | > 100 µM (inactive) | 23.8 µM (inactive) | > 100 µM (inactive) | 64.4 µM (inactive) | 41.6 µM (inactive)
CN=[S+]([O-])(c1ccccc1)c1ccccc1 | – | > 100 µM (inactive) | > 100 µM (inactive) | > 100 µM (inactive) | – | > 100 µM (inactive) | > 100 µM (inactive) | > 100 µM (inactive) | – | > 100 µM (inactive) | > 100 µM (inactive) | > 100 µM (inactive) | > 100 µM (inactive) | > 100 µM (inactive) | > 100 µM (inactive) | > 100 µM (inactive) | 96.8 µM (inactive) | > 100 µM (inactive) | > 100 µM (inactive) | > 100 µM (inactive)
CN(C)CCNC(=O)c1cccc2cc3c(Cl)cccc3nc12 | – | 1.71 µM (inactive) | 1.15 µM (inactive) | 2.15 µM (inactive) | – | 1.1 µM (active) | 2.86 µM (inactive) | 0.718 µM (active) | – | 1.2 µM (inactive) | 3.53 µM (inactive) | 0.889 µM (active) | 1.01 µM (active) | 1.24 µM (inactive) | – | 2.61 µM (inactive) | 1.97 µM (inactive) | 1.95 µM (inactive) | 1.35 µM (inactive) | 1.75 µM (inactive)
O=[N+]([O-])c1ccccc1S(=O)(=O)c1ccccc1[N+](=O)[O-] | > 100 µM (inactive) | > 56.2 µM (inactive) | > 79.3 µM (inactive) | > 100 µM (inactive) | 65.9 µM (inactive) | > 56.2 µM (inactive) | > 67.6 µM (inactive) | 34.9 µM (inactive) | > 100 µM (inactive) | > 84.7 µM (inactive) | > 90.8 µM (inactive) | > 100 µM (inactive) | > 100 µM (inactive) | 28.9 µM (inactive) | 36.9 µM (inactive) | > 10 µM (inactive) | 21 µM (inactive) | 53.7 µM (inactive) | > 90.2 µM (inactive) | > 100 µM (inactive)
O=C(N/N=C1\C(=O)N(c2nccs2)C(=O)C(=O)C1c1nc2ccccc2s1)c1ccccc1O (centres undefined) | – | 47.5 µM (inactive) | 71.1 µM (inactive) | 88.1 µM (inactive) | – | 43 µM (inactive) | 30.2 µM (inactive) | 23.9 µM (inactive) | – | 25.9 µM (inactive) | > 100 µM (inactive) | > 100 µM (inactive) | > 100 µM (inactive) | 49.8 µM (inactive) | 47.5 µM (inactive) | > 100 µM (inactive) | 3.3 µM (inactive) | > 100 µM (inactive) | 28.3 µM (inactive) | > 100 µM (inactive)
NC(=S)N/N=C(\CCC(=O)Nc1ccccc1[N+](=O)[O-])CC(=O)c1ccco1 | – | > 100 µM (inactive) | > 100 µM (inactive) | > 100 µM (inactive) | – | > 100 µM (inactive) | > 100 µM (inactive) | > 100 µM (inactive) | – | > 100 µM (inactive) | > 100 µM (inactive) | > 100 µM (inactive) | > 100 µM (inactive) | > 100 µM (inactive) | > 100 µM (inactive) | > 100 µM (inactive) | > 100 µM (inactive) | > 100 µM (inactive) | > 100 µM (inactive) | > 100 µM (inactive)
O=C(CC(=O)C1=CNc2ccccc2S1)C(=O)Nc1ccc(Cl)cc1 | – | > 50 µM (inactive) | 49.4 µM (inactive) | > 50 µM (inactive) | – | > 50 µM (inactive) | > 50 µM (inactive) | > 50 µM (inactive) | – | > 50 µM (inactive) | > 50 µM (inactive) | > 50 µM (inactive) | > 50 µM (inactive) | > 50 µM (inactive) | > 50 µM (inactive) | > 50 µM (inactive) | > 50 µM (inactive) | > 50 µM (inactive) | > 50 µM (inactive) | > 50 µM (inactive)
COc1ccccc1C(O)(c1ccccc1)C(O)(c1ccccc1)c1ccccc1OC (centres undefined) | – | > 100 µM (inactive) | > 100 µM (inactive) | > 100 µM (inactive) | – | > 100 µM (inactive) | > 100 µM (inactive) | > 100 µM (inactive) | – | > 100 µM (inactive) | > 31.6 µM (inactive) | > 100 µM (inactive) | > 100 µM (inactive) | > 100 µM (inactive) | > 100 µM (inactive) | > 100 µM (inactive) | 41.6 µM (inactive) | > 100 µM (inactive) | > 100 µM (inactive) | > 100 µM (inactive)
NC1=NC2=c3ccccc3=C(c3cnccn3)C2(c2cnccn2)c2ccccc21 (centres undefined) | – | 34 µM (inactive) | 34.7 µM (inactive) | > 100 µM (inactive) | – | 73.3 µM (inactive) | 49.5 µM (inactive) | > 100 µM (inactive) | – | > 100 µM (inactive) | > 100 µM (inactive) | 89.5 µM (inactive) | 32.4 µM (inactive) | 98.9 µM (inactive) | 42.2 µM (inactive) | > 100 µM (inactive) | 39.6 µM (inactive) | 87.9 µM (inactive) | 50.4 µM (inactive) | > 100 µM (inactive)
CCOC(=O)N1Cc2ccoc2C1 | – | > 100 µM (inactive) | > 100 µM (inactive) | > 100 µM (inactive) | – | > 100 µM (inactive) | > 100 µM (inactive) | > 100 µM (inactive) | – | > 100 µM (inactive) | > 100 µM (inactive) | > 100 µM (inactive) | > 100 µM (inactive) | > 100 µM (inactive) | > 100 µM (inactive) | > 100 µM (inactive) | > 100 µM (inactive) | > 100 µM (inactive) | > 100 µM (inactive) | > 100 µM (inactive)
CC1CN1c1c(C(=O)/C=C/c2ccc(Cl)cc2)c(-c2ccccc2)nn(C)c1=O (centres undefined) | – | – | 4.99 µM (inactive) | 3.89 µM (inactive) | – | 2.55 µM (inactive) | 2.18 µM (inactive) | 2.82 µM (inactive) | – | 3.05 µM (inactive) | 2.59 µM (inactive) | 3.65 µM (inactive) | 1.96 µM (inactive) | 2.35 µM (inactive) | 3.96 µM (inactive) | 5.47 µM (inactive) | 2.65 µM (inactive) | 2.92 µM (inactive) | 3.65 µM (inactive) | 2.4 µM (inactive)
